20 compounds from US11020399B2, “Intermediates useful in the synthesis of compounds as modulators of protein kinases” (Rhizen Pharmaceuticals SA, priority 2011, dated 2021) can be followed below.

Holding throughout (type): biochemical
For one assay, the target named is PI3kβ (Homo sapiens, UniProt P42338). The assay can be described thus: Fluorescent (HTRF) determination of PI3 kinase enzyme activity, PI3Kβ. An excerpt:
(§1) Assay 1: Fluorescent Determination of PI3Kinase Kinase Enzyme Activity
(§2) Phosphoinositide 3 kinases (PI3K) belong to a class of lipid kinases that play a critical role in the regulation of several key cellular processes. The PI3K are capable of phosphorylating the 3-hydroxy position of phosphoinositols thereby generating second messengers involved in downstream signalling events. The homogenous time resolved fluorescence (HTRF) assay allows detection of 3,4,5-triphosphate (PIP3) formed as a result of phosphorylation of phosphotidylinositol 4,5-biphosphate (PIP2) by PI3K isoforms such as α, β, γ or δ. PI3K isoform activity for a, p, y or 8 was determined using a PI3K human HTRF™ Assay Kit (Millipore, Billerica, Mass.) with modifications. All incubations were carried out at room temperature. Briefly, 0.5 μl of 40× inhibitor (in 100% DMSO) or 100% DMSO were added to each well of a 384-well black plate (Greiner Bio-One, Monroe, N.C.) containing 14.5 μl IX reaction buffer /PIP2 (10 mM MgCl2, 5 mM DTT, 1.38 μM PIP2) mix with or without enzyme and incubated for 10 min. After the initial incubation, 5 μl/well of 400 μM ATP was added and incubated for an additional 30 minutes. Reaction was terminated by adding 5 μl/well stop solution (Millipore, Billerica, Mass.). Five microliters of detection mix (Millipore, Billerica, Mass.) were then added to each well and was incubated for 6-18 h in the dark. HRTF ratio was measured on a microplate reader (BMG Labtech., Germany) at an excitation wavelength of 337 nm and emission wavelengths of 665 and 620 nm with an integration time of 400 μsec.
(§3) Data were analyzed using Graphpad Prism (Graphpad software; San Diego Calif.) for IC50 determination. Examples 1-59 were tested at 1 uM for Pi3kα & Pi3k β and at 0.3 uM for γ and δ. Examples 60-137 were tested at 1 uM for Pi3kα & Pi3k β and at 0.1 uM for γ and δ. Percent inhibition was calculated based on the values for the blank and enzyme controls. The results are as provided in Table 2 (wherein D=0 to 25%; C=>25 to 50%; B=>50 to 75%; A=>75 to 100%; +++++=≤50 nM; ++++=>50 to ≤100 nM; +++=>100 to ≤300 nM; ++=>300 to ≤500 nM; +=>500 nM)
(Time-resolved FRET reads energy transfer from a long-lived donor to a nearby acceptor.)

The target of a further assay is PI3kγ (Homo sapiens, UniProt P48736). The assay can be described thus: Fluorescent (HTRF) determination of PI3 kinase enzyme activity, PI3Kγ. The conditions noted are these: for inhibition at 0.1 µM / % inhibition (PI3kγ) 100 nM: 100 nM (Examples 60-137); for inhibition at 0.3 µM: 300 nM (Examples 1-59).
PI3kγ, sequence (P48736 whole entry): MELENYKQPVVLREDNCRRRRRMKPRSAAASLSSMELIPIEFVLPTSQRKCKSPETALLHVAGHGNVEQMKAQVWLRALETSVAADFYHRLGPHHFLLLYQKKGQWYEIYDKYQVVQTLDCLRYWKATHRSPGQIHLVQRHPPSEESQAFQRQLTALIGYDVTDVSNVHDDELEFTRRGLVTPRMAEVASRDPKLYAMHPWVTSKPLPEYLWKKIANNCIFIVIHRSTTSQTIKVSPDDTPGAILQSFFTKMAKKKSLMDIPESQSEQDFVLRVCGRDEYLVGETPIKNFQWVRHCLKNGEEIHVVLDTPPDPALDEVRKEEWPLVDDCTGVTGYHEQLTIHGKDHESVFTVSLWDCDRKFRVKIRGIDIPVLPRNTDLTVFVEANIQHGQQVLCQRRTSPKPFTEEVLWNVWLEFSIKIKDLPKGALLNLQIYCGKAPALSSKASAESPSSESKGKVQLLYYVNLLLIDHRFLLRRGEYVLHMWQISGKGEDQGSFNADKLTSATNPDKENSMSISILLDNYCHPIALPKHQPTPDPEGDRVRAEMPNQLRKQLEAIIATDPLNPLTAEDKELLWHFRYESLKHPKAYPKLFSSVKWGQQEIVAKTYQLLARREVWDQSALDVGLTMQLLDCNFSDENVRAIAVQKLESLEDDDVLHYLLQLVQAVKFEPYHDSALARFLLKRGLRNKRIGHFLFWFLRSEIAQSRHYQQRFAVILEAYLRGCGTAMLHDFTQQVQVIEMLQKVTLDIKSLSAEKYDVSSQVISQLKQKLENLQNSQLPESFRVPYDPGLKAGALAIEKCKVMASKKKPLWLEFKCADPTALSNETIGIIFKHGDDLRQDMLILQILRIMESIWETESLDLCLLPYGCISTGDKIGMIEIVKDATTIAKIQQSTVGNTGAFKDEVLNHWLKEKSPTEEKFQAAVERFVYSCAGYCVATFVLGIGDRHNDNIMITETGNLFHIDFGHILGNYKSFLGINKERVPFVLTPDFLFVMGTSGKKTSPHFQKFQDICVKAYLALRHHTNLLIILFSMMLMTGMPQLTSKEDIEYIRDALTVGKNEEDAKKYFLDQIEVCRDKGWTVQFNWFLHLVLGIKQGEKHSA
Excerpt: as §1, §2, §3

The target of the next assay is PI3kδ (Homo sapiens, UniProt O00329). The assay can be described thus: Fluorescent (HTRF) determination of PI3 kinase enzyme activity, PI3Kδ. The note with it: for inhibition at 0.1 µM / % inhibition (PI3kδ) 100 nM: 100 nM (Examples 60-137); for % inhibition (PI3kδ) 100 nM: 0.1 µM; for inhibition at 0.3 µM: 300 nM (Examples 1-59).
PI3kδ, sequence (O00329 whole entry): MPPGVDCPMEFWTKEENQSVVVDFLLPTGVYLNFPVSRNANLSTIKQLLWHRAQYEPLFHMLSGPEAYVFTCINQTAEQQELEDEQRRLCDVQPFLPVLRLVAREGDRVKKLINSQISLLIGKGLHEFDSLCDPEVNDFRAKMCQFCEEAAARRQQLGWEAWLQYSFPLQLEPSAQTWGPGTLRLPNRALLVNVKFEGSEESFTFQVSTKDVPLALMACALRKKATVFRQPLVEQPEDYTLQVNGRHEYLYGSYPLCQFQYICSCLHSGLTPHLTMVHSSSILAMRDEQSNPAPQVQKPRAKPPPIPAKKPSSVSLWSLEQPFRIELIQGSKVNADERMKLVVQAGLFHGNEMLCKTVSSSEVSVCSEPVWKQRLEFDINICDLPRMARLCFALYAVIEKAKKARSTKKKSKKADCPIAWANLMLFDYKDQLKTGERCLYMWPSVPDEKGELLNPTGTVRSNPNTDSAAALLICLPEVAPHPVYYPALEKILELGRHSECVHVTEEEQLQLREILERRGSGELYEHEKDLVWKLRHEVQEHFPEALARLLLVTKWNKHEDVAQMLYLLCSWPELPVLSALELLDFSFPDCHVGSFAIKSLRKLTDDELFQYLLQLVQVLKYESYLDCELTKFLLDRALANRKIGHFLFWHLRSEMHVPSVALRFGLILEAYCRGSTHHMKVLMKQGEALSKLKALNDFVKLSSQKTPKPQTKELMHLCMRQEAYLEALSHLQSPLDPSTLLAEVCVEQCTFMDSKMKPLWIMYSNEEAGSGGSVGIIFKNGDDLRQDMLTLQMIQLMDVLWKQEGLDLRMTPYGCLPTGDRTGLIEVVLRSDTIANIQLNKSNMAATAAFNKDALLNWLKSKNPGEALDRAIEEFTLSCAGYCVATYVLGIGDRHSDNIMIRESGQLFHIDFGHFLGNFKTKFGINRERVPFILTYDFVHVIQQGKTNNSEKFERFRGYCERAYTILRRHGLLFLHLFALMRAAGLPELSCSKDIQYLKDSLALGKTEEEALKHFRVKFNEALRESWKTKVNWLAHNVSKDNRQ
PI3kδ, sequence (P27986 whole entry partner): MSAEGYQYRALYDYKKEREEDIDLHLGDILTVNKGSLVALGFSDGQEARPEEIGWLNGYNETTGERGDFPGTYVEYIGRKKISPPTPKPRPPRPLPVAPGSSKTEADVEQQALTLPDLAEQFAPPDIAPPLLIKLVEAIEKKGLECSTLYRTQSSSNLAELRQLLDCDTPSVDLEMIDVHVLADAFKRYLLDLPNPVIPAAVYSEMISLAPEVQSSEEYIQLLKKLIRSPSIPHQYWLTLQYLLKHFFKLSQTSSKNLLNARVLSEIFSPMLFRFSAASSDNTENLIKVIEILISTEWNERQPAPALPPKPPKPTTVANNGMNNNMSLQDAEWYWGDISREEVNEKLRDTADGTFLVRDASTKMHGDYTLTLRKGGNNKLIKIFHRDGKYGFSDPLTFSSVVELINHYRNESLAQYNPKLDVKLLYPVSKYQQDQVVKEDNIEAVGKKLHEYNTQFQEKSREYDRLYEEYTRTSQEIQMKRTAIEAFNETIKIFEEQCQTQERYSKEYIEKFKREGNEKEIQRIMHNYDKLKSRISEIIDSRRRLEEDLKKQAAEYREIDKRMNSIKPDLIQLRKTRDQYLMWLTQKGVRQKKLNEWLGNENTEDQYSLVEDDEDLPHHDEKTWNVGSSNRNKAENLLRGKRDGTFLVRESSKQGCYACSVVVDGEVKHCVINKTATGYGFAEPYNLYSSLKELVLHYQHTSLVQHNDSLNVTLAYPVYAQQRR
Excerpt: as §1, §2, §3

In the next assay the target is PI3kα (Homo sapiens, UniProt P42336). In words: Fluorescent (HTRF) determination of PI3 kinase enzyme activity, PI3Kα.
PI3kα, sequence (P42336 whole entry): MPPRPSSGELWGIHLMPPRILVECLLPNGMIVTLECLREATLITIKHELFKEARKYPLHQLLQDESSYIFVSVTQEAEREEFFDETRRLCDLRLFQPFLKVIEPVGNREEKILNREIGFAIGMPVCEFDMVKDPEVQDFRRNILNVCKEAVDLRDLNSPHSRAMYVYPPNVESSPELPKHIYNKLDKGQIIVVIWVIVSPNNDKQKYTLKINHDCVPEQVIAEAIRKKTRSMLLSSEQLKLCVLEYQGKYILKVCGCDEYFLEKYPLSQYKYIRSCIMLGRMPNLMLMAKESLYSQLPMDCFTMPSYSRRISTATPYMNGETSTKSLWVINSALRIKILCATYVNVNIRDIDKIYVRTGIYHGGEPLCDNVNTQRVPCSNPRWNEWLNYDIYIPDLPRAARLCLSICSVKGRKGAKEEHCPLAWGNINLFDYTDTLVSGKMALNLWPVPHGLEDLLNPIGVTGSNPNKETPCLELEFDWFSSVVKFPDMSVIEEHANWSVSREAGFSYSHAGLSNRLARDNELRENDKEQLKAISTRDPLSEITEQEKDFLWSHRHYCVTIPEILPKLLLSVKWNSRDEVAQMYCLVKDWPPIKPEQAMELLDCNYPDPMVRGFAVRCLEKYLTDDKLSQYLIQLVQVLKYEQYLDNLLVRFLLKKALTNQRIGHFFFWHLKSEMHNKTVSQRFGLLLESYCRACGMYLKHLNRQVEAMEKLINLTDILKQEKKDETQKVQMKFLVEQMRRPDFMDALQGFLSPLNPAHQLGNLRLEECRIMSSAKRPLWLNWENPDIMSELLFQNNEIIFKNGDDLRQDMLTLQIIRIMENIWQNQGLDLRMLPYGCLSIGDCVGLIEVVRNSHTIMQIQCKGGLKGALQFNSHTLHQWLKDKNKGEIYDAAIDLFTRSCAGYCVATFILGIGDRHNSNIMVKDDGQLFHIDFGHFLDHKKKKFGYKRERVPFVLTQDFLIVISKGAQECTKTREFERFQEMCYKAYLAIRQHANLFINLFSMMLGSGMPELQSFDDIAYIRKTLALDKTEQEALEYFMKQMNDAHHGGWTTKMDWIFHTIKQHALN
PI3kα, sequence (P27986 whole entry partner): as the sequence (P27986 whole entry partner) above
Excerpt: as §1, §2, §3

PI3kβ, sequence (P42338 whole entry): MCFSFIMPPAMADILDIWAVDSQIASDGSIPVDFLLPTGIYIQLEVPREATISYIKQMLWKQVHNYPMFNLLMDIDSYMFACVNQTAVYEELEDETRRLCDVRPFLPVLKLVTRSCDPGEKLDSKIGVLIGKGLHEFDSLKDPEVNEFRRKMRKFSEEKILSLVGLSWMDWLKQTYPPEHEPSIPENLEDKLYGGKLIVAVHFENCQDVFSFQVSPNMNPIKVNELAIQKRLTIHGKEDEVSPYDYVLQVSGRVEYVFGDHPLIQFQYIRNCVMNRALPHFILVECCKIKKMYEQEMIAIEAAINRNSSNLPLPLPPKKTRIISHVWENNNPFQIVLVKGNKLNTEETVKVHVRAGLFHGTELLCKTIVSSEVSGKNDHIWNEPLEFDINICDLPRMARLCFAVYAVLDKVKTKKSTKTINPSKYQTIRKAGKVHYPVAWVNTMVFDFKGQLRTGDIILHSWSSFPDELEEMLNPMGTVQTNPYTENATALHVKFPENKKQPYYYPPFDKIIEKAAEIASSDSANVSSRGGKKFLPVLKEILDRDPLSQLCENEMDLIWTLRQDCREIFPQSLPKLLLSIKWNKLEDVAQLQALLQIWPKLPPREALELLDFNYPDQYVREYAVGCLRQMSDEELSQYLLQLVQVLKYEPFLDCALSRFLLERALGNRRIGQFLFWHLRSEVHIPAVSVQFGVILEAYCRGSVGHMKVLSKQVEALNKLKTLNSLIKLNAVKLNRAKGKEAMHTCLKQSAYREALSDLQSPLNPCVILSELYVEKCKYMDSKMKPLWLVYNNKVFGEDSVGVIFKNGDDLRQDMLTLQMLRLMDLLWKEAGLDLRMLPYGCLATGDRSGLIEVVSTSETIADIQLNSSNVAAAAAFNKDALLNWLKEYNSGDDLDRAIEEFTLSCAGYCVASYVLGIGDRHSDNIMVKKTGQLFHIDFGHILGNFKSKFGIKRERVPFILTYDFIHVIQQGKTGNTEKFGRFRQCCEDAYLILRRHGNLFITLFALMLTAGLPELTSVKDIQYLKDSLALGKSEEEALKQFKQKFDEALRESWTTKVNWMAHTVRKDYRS
PI3kβ, sequence (P27986 whole entry partner): as the sequence (P27986 whole entry partner) above

Consider `CNc1ncnc2c1ncn2C(C)c1oc2cccc(F)c2c(=O)c1-c1cccc(F)c1` (stereo not drawn) [Example 111, 5-fluoro-3-(3-fluorophenyl)-2-(1-(6-(methylamino)-9H-purin-9-yl)ethyl)-4H-chromen-4-one], for which, on PI3kβ, the inhibition (as a rule, the share of the control response that was lost under treatment) at 1 µM is 0 to 25%. In addition, the inhibition at 0.1 µM against PI3kγ and against PI3kδ was 25 to 50% throughout.

In the case of `CNc1ncnc2c1c(-c1ccc(N3CCOCC3)c(F)c1)nn2C(C)c1oc2cccc(F)c2c(=O)c1-c1cccc(F)c1` (stereo not drawn) [Example 99, 5-fluoro-2-(1-(3-(3-fluoro-4-morpholinophenyl)-4-(methylamino)-1H-pyrazolo[3,4-d]pyrimidin-1-yl)ethyl)-3-(3-fluorophenyl)-4H-chromen-4-one], the inhibition at 0.1 µM on PI3kγ and at PI3kδ was 25 to 50% each time.

For the compound `CC(c1oc2cccc(F)c2c(=O)c1-c1ccc(F)cc1)n1nc(-c2ccc(OC(F)F)c(F)c2)c2c(N)ncnc21` (racemic) [Example 96, (S)/(R)-2-(1-(4-amino-3-(4-(difluoromethoxy)-3-fluorophenyl)-1H-pyrazolo[3,4-d]pyrimidin-1-yl)ethyl)-5-fluoro-3-(4-fluorophenyl)-4H-chromen-4-one], the inhibition at 0.1 µM against PI3kγ and at PI3kδ was 0 to 25% each time.

For the compound `CCC(c1oc2cccc(F)c2c(=O)c1-c1cccc(F)c1)n1nc(-c2ccc(OC(C)C)c(F)c2)c2c(N)ncnc21` (stereo not drawn) [Example 133, 2-(1-(4-amino-3-(3-fluoro-4-isopropoxyphenyl)-1H-pyrazolo[3,4-d]pyrimidin-1-yl)propyl)-5-fluoro-3-(3-fluorophenyl)-4H-chromen-4-one], the inhibition at 1 µM against PI3kβ lay in the range of 50 to 75%. Also, the inhibition at 0.1 µM against PI3kγ was in the range of 50 to 75%; on PI3kδ, 25 to 50%.

For the compound `CC(c1oc2cccc(F)c2c(=O)c1-c1ccccc1)n1nc(-c2ccc(OC(F)F)c(F)c2)c2c(N)ncnc21` (single isomer, unassigned) [Example 103], the inhibition at 0.1 µM at PI3kγ is 25 to 50%; on PI3kδ it was 0 to 25%.

With `Cc1cc(-c2nn(C(C)c3oc4cccc(F)c4c(=O)c3-c3cccc(F)c3)c3ncnc(N)c23)ccc1OC(C)C` (single isomer, unassigned; (+)) [Example 114, (+) 2-(1-(4-amino-3-(4-isopropoxy-3-methylphenyl)-1H-pyrazolo[3,4-d]pyrimidin-1-yl)ethyl)-5-fluoro-3-(3-fluorophenyl)-4H-chromen-4-one], the “% inhibition (PI3kα) 1 uM” value on PI3kα (1 uM) is on record as “D (D=0 to 25%)”. At PI3kγ (0.1 µM), the “% inhibition (PI3kγ) 100 nM” value was “B (B=>50 to 75%)”. Moreover, at PI3kδ, the “% inhibition (PI3kδ) 100 nM” value is given as “B (B=>50 to 75%)”.

Take `CC(c1oc2cccc(F)c2c(=O)c1-c1ccc(F)cc1)n1cnc2c(N3CCN(C)CC3)ncnc21` (stereo not drawn) [Example 109, 5-fluoro-3-(4-fluorophenyl)-2-(1-(6-(4-methylpiperazin-1-yl)-9H-purin-9-yl)ethyl)-4H-chromen-4-one]: the inhibition at 0.1 µM was 0 to 25% against PI3kγ and 25 to 50% on PI3kδ.

As to `CC(c1oc2cccc(F)c2c(=O)c1-c1ccccc1)n1nc(-c2ccc(N3CCOCC3)c(F)c2)c2c(N)ncnc21` (stereo not drawn) [Example 92, 2-(1-(4-amino-3-(3-fluoro-4-morpholinophenyl)-1H-pyrazolo[3,4-d]pyrimidin-1-yl)ethyl)-5-fluoro-3-phenyl-4H-chromen-4-one], the inhibition at 0.1 µM on PI3kγ and against PI3kδ was 0 to 25% throughout.

On to `CNc1ncnc2c1c(-c1ccc(OC(C)C)c(F)c1)nn2C(C)c1oc2cccc(F)c2c(=O)c1-c1cccc(F)c1` (single isomer, unassigned; (-)) [Example 105, (−)-5-fluoro-2-(1-(3-(3-fluoro-4-isopropoxyphenyl)-4-(methylamino)-1H-pyrazolo[3,4-d]pyrimidin-1-yl)ethyl)-3-(3-fluorophenyl)-4H-chromen-4-one], for which the “% inhibition (PI3kγ) 100 nM” value at PI3kγ is given as “C (C=>25 to 50%)”. Further, at PI3kδ, the “% inhibition (PI3kδ) 100 nM” value is on record as “D (D=0 to 25%)”.

Take `CC(C)Oc1ccc(-c2nn(C(C)c3oc4cccc(F)c4c(=O)c3-c3cccc(F)c3)c3ncnc(N)c23)cc1Cl` (stereo not drawn) [Example 117, 2-(1-(4-amino-3-(3-chloro-4-isopropoxyphenyl)-1H-pyrazolo[3,4-d]pyrimidin-1-yl)ethyl)-5-fluoro-3-(3-fluorophenyl)-4H-chromen-4-one]: the inhibition at 1 µM on PI3kα (1 uM) fell in the range of 50 to 75%. Also, the inhibition at 0.1 µM on PI3kγ and on PI3kδ was 25 to 50% in each case.

Take `CC(Nc1ncnc2[nH]cnc12)c1oc2cccc(F)c2c(=O)c1-c1cccc(F)c1` (stereo not drawn) [Example 15, 2-(1-(9H-purin-6-ylamino)ethyl)-5-fluoro-3-(3-fluorophenyl)-4H-chromen-4-one]: the inhibition at 0.3 µM at PI3kγ and against PI3kδ was 0 to 25% throughout.

As for `COc1cccc2oc(Cn3cnc4c(N)ncnc43)c(-c3cccc(F)c3)c(=O)c12` [Example 1], the inhibition at 1 µM against PI3kα (1 uM) and at PI3kβ was 25 to 50% each time. At PI3kδ, this compound had an inhibition at 0.3 µM of 50 to 75%.

`CC(c1oc2cccc(F)c2c(=O)c1-c1cccc(F)c1)n1nc(-c2ccc(OC3CCNCC3)c(F)c2)c2c(N)ncnc21` (stereo not drawn) [Example 21, 2-(1-(4-amino-3-(3-fluoro-4-(piperidin-4-yloxy)phenyl)-1H-pyrazolo[3,4-d]pyrimidin-1-yl)ethyl)-5-fluoro-3-(3-fluorophenyl)-4H-chromen-4-one]: the values for the inhibition at 0.3 µM on PI3kγ and at PI3kδ were 0 to 25% and 25 to 50%, respectively.

In the case of `CC(C)c1nn(C(C)c2oc3cccc(F)c3c(=O)c2-c2cccc(F)c2)c2ncnc(N)c12` (stereo not drawn) [Example 35, 2-(1-(4-amino-3-isopropyl-1H-pyrazolo[3,4-d]pyrimidin-1-yl)ethyl)-5-fluoro-3-(3-fluorophenyl)-4H-chromen-4-one], the values for the inhibition at 0.3 µM at PI3kγ and against PI3kδ were 25 to 50% and 0 to 25%, respectively.

Compound `CNc1ncnc2c1c(-c1ccc(OC(C)C)c(F)c1)nn2C(C)c1oc2cccc(F)c2c(=O)c1-c1cccc(F)c1` (single isomer, unassigned; (+)) [Example 104, (+)-5-fluoro-2-(1-(3-(3-fluoro-4-isopropoxyphenyl)-4-(methylamino)-1H-pyrazolo[3,4-d]pyrimidin-1-yl)ethyl)-3-(3-fluorophenyl)-4H-chromen-4-one] displayed an inhibition at 0.1 µM on PI3kγ of 25 to 50%. Also, the “% inhibition (PI3kδ) 100 nM” value at PI3kδ is on record as “D (D=0 to 25%)”.

With `Nc1ncnc2c1c(-c1cc(O)cc(F)c1)nn2Cc1oc2cccc(F)c2c(=O)c1-c1cccc(F)c1` [Example 5, 2-((4-amino-3-(3-fluoro-5-hydroxyphenyl)-1H-pyrazolo[3,4-d]pyrimidin-1-yl)methyl)-5-fluoro-3-(3-fluorophenyl)-4H-chromen-4-one], the inhibition at 1 µM against PI3kα (1 uM) is 25 to 50%; at PI3kβ it was 0 to 25%. Also, the IC50 (commonly the concentration that inhibits the measured activity by half) was over 10000 nM against PI3kα (numeric values) and 300 to 500 nM against PI3kβ. This compound showed an inhibition at 0.3 µM against PI3kδ of 50 to 75%.

Take `CC(c1oc2cccc(F)c2c(=O)c1-c1ccc(F)cc1)n1nc(-c2ccc(N3CCOCC3)c(F)c2)c2c(N)ncnc21` (stereo not drawn) [Example 93, 2-(1-(4-amino-3-(3-fluoro-4-morpholinophenyl)-1H-pyrazolo[3,4-d]pyrimidin-1-yl)ethyl)-5-fluoro-3-(4-fluorophenyl)-4H-chromen-4-one]: the inhibition at 0.1 µM against PI3kγ fell in the range of 0 to 25%; at PI3kδ it was 25 to 50%.

For the compound `CC(c1oc2cccc(F)c2c(=O)c1-c1cccc(F)c1)n1cnc2c(N3CCOCC3)ncnc21` (stereo not drawn) [Example 119, 5-fluoro-3-(3-fluorophenyl)-2-(1-(6-morpholino-9H-purin-9-yl)ethyl)-4H-chromen-4-one], the inhibition at 0.1 µM was in the range of 25 to 50% on PI3kγ and 0 to 25% on PI3kδ.

In the case of `CC(c1oc2cccc(F)c2c(=O)c1-c1cccc(F)c1)n1cnc2c(N)nc(F)nc21` (stereo not drawn) [Example 106, 2-(1-(6-amino-2-fluoro-9H-purin-9-yl)ethyl)-5-fluoro-3-(3-fluorophenyl)-4H-chromen-4-one], the inhibition at 0.1 µM lay in the range of 25 to 50% at PI3kγ and 0 to 25% against PI3kδ.

`CC(C)Oc1ccc(-c2nn(C(C)c3oc4cccc(F)c4c(=O)c3-c3ccc(F)cc3)c3ncnc(N)c23)cc1F` (single isomer, unassigned) [Example 95]: the inhibition at 0.1 µM on PI3kγ lay within 0 to 25%; on PI3kδ, 25 to 50%.
